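Dose response: 5 concentrations. Exposure: 48 h. Format: 96-well plates. Endpoint: linear interpolation; highest concentration if not reached. Abbreviation: GI50, concentration required for 50% inhibition of growth. TGI: concentration producing complete growth inhibition.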
Legend:
Assay in all cases: NCI-60 cell line screen, 48 h
[1] = system: OVCAR-4 ovarian
[2] = system: MDA-MB-231 breast
[3] = system: SNB-75 CNS
[4] = system: SW-620 colon
[5] = system: HCC-2998 colon
[6] = system: OVCAR-8 ovarian
[7] = system: UACC-62 melanoma
[8] = system: SK-MEL-28 melanoma
[9] = system: NCI-H522 lung
[10] = system: TK-10 renal
[11] = system: A498 renal
[12] = system: SK-MEL-2 melanoma
[13] = system: NCI-H226 lung
[14] = system: MDA-MB-435
[15] = system: SF-268 CNS
[16] = system: MCF7 breast
[17] = system: U251 CNS
[18] = system: MDA-MB-468 breast
[19] = system: MALME-3M melanoma
[20] = system: HOP-92 NSCLC
[21] = system: HCT-15 colon
[22] = system: MOLT-4 leukemia
[23] = system: RPMI-8226 leukemia
[24] = system: M14 melanoma
[25] = system: SNB-19 CNS
[26] = system: HS 578T breast
[27] = system: HL-60(TB) leukemia
[28] = system: NCI-H23 lung
[29] = system: CAKI-1 renal

How did the GI50 [1] turn out when `Cc1ccccc1[C@H]1C(C(=O)c2ccc(Cl)cc2)C2(N[C@@H]1c1ccccc1)C(=O)Nc1ccccc12` (stereo partly drawn) was run?
Its GI50 is 6.08 µM.

And the TGI [1]?
Its TGI is 16.2 µM.

And the GI50 [2]?
Its GI50 is 4.31 µM.

What about the TGI [2] of the same molecule?
Its TGI is 9.35 µM.

And the GI50 [3]?
The GI50 was 2.63 µM.

What about the TGI [3] of the same molecule?
The TGI was 14.5 µM.

And the GI50 [4]?
Its GI50 is 5.54 µM.

And the TGI [4]?
Its TGI is 13.8 µM.

And the GI50 [5]?
Its GI50 is 5.95 µM.

And the TGI [5]?
The TGI was 12.2 µM.

What about the GI50 [6] of the same molecule?
Its GI50 is 6.05 µM.

And the TGI [6]?
Its TGI is 13.4 µM.

And the GI50 [7]?
The GI50 was 2.78 µM.

And the TGI [7]?
The TGI was 8.48 µM.

And the GI50 [8]?
The GI50 was 5.91 µM.

What about the TGI [8] of the same molecule?
The TGI was 11.7 µM.

What about the GI50 [9] of the same molecule?
The GI50 was 4.46 µM.

And the TGI [9]?
The TGI was 11.5 µM.

What about the GI50 [10] of the same molecule?
The GI50 was 6.86 µM.

And the TGI [10]?
Its TGI is 15.8 µM.

And the GI50 [11]?
Its GI50 is 6.77 µM.

What about the TGI [11] of the same molecule?
Its TGI is 12.9 µM.

And the GI50 [12]?
The GI50 was 5.83 µM.

And the TGI [12]?
The TGI was 12.1 µM.

What about the GI50 [13] of the same molecule?
Its GI50 is 5.91 µM.

And the TGI [13]?
Its TGI is 12.1 µM.

What about the GI50 [14] of the same molecule?
Its GI50 is 3.65 µM.

And the TGI [14]?
The TGI was 9.28 µM.

And the GI50 [15]?
The GI50 was 5.73 µM.

What about the TGI [15] of the same molecule?
Its TGI is 17.1 µM.

And the GI50 [16]?
The GI50 was 2.26 µM.

What about the TGI [16] of the same molecule?
The TGI was 12.4 µM.

What about the GI50 [17] of the same molecule?
Its GI50 is 5.56 µM.

What about the TGI [17] of the same molecule?
Its TGI is 13.1 µM.

What about the GI50 [18] of the same molecule?
The GI50 was 0.957 µM.

And the TGI [18]?
Its TGI is 2.74 µM.

What about the GI50 [19] of the same molecule?
Its GI50 is 6 µM.

And the TGI [19]?
The TGI was 11.6 µM.

What about the GI50 [20] of the same molecule?
The GI50 was 2.47 µM.

What about the TGI [20] of the same molecule?
The TGI was 8.55 µM.

What about the GI50 [21] of the same molecule?
The GI50 was 5.11 µM.

What about the TGI [21] of the same molecule?
Its TGI is 14.1 µM.

What about the GI50 [22] of the same molecule?
Its GI50 is 4.14 µM.

What about the TGI [22] of the same molecule?
The TGI was 33 µM.

And the GI50 [23]?
The GI50 was 7.66 µM.

What about the TGI [23] of the same molecule?
The TGI was 28.3 µM.

What about the GI50 [24] of the same molecule?
Its GI50 is 5.62 µM.

What about the TGI [24] of the same molecule?
The TGI was 11.7 µM.

What about the GI50 [25] of the same molecule?
Its GI50 is 8.35 µM.

What about the TGI [25] of the same molecule?
Its TGI is 26.6 µM.

What about the GI50 [26] of the same molecule?
The GI50 was 4.76 µM.

What about the TGI [26] of the same molecule?
Its TGI is 15.3 µM.

What about the GI50 [27] of the same molecule?
The GI50 was 8.01 µM.

What about the TGI [27] of the same molecule?
Its TGI is 30.4 µM.

And the GI50 [28]?
The GI50 was 5.67 µM.

What about the TGI [28] of the same molecule?
The TGI was 12.2 µM.

What about the GI50 [29] of the same molecule?
Its GI50 is 3.62 µM.

What about the TGI [29] of the same molecule?
Its TGI is 11.6 µM.
